Source: ChEMBL document CHEMBL1201862, “PubChem BioAssay data set” (2004)
Active and inactive are the calls of the source.

How the values were obtained:
[1] = molecular target: DNA dC->dU-editing enzyme APOBEC-3A (Homo sapiens, UniProt P31941); test: A3A deaminase inhibition for selectivity – biochemical, dose response (AID 504722); assay type: functional
[2] = molecular target: DNA dC->dU-editing enzyme APOBEC-3G (Homo sapiens, UniProt Q9HC16); test: Dose Response confirmation of small molecule APOBEC3G DNA Deaminase Inhibitors via a fluorescence-based single-stranded DNA deaminase assay. [Related pubchem assays (depositor defined):AID493012, AID493028]; assay type: functional
DNA dC->dU-editing enzyme APOBEC-3G, sequence (Q9HC16 whole entry): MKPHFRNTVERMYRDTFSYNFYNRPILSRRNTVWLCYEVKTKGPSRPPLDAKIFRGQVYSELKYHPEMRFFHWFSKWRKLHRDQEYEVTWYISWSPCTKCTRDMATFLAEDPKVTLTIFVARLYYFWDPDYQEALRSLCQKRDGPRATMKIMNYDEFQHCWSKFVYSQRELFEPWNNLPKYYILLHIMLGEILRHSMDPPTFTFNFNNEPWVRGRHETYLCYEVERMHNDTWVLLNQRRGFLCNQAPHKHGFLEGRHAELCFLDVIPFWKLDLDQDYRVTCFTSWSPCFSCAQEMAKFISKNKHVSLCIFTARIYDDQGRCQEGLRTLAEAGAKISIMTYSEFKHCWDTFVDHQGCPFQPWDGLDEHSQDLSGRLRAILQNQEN

[3] = Trypanosoma cruzi growth suppression in host cells – NIH3T3 host cells, beta-gal luminescence, confirmation (AID 2044); assay type: functional, cell-based;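 note: intracellular parasites grown in NIH/3T3 mouse fibroblasts as host cells; luminescent beta-galactosidase reporter signal from transgenic T. cruzi replicating inside host cells; inhibitors lower the luminescence signal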
[4] = molecular target: T1, Mucolipin-3 (Homo sapiens, UniProt Q8TDD5); test: Dose response cell-based high-throughput screening assay for agonists of the transient receptor potential channel ML3 (TRPML3). [Related pubchem assays: 1526, 1424, 1448 ]; assay type: functional
T1 sequence (Q8TDD5 whole entry): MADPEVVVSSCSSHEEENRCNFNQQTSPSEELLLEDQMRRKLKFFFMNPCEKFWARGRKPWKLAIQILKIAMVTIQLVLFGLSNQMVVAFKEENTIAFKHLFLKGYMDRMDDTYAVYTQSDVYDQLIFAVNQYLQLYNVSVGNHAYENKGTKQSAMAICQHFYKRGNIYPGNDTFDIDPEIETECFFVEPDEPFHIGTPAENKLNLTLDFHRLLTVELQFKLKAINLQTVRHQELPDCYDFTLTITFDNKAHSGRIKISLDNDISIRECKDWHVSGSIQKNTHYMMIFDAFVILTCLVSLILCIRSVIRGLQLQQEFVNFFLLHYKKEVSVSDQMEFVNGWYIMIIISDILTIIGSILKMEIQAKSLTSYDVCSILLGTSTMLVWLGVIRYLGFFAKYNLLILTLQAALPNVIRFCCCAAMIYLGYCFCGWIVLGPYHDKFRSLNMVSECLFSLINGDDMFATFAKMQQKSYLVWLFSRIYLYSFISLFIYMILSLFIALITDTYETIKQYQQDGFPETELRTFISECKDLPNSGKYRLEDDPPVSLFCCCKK

[5] = NIH3T3 cell viability loss – ATP luminescence, mouse fibroblasts, counter-screen, dose response (AID 2010); assay type: functional, cell-based;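 note: cells exposed to compound for about 90 hours before reading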
[6] = molecular target: Ion channel NompC (Danio rerio, UniProt Q7T1G6); test: Fluorescence counterscreen assay for TRPML3 agonists: dose response cell-based high-throughput screening assay to identify agonists of the transient receptor potential channel N1 (TRPN1). [Related pubchem assays: 1526, 1424, 1448 ]; assay type: functional
[7] = molecular target: SUMO-activating enzyme (Homo sapiens, UniProt Q9UBT2); test: blockers of UBC9-mediated SUMO conjugation – biochemical, AlphaScreen, SUMOylation inhibitor project, confirmation (AID 2018); assay type: functional
[8] = molecular target: Peroxisome proliferator-activated receptor gamma/Nuclear receptor coactivator 2 (Homo sapiens, UniProt P37231); assay type: functional;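 note: agonist potency for raising coactivator recruitment to the receptor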
[9] = molecular target: Peroxisome proliferator-activated receptor gamma/Nuclear receptor coactivator 1 (Homo sapiens, UniProt P37231); assay type: functional;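 note: agonist potency as compounds enhance coactivator SRC-1 recruitment to PPARgamma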
Peroxisome proliferator-activated receptor gamma/Nuclear receptor coactivator 1, sequence (P37231 whole entry): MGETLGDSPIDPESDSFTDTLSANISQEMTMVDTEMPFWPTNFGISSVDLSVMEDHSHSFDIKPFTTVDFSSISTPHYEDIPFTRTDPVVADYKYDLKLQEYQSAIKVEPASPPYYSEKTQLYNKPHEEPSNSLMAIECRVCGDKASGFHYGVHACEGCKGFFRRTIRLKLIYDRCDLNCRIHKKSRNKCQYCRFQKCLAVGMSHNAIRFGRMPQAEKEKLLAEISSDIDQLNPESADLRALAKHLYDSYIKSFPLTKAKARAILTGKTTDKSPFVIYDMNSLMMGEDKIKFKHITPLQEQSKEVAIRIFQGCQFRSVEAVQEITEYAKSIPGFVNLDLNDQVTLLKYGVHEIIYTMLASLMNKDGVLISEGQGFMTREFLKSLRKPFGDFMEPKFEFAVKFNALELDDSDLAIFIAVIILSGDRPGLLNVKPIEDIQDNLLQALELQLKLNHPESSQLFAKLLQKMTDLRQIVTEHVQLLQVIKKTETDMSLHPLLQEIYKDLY
Peroxisome proliferator-activated receptor gamma/Nuclear receptor coactivator 1, sequence (Q15788 whole entry, further chain): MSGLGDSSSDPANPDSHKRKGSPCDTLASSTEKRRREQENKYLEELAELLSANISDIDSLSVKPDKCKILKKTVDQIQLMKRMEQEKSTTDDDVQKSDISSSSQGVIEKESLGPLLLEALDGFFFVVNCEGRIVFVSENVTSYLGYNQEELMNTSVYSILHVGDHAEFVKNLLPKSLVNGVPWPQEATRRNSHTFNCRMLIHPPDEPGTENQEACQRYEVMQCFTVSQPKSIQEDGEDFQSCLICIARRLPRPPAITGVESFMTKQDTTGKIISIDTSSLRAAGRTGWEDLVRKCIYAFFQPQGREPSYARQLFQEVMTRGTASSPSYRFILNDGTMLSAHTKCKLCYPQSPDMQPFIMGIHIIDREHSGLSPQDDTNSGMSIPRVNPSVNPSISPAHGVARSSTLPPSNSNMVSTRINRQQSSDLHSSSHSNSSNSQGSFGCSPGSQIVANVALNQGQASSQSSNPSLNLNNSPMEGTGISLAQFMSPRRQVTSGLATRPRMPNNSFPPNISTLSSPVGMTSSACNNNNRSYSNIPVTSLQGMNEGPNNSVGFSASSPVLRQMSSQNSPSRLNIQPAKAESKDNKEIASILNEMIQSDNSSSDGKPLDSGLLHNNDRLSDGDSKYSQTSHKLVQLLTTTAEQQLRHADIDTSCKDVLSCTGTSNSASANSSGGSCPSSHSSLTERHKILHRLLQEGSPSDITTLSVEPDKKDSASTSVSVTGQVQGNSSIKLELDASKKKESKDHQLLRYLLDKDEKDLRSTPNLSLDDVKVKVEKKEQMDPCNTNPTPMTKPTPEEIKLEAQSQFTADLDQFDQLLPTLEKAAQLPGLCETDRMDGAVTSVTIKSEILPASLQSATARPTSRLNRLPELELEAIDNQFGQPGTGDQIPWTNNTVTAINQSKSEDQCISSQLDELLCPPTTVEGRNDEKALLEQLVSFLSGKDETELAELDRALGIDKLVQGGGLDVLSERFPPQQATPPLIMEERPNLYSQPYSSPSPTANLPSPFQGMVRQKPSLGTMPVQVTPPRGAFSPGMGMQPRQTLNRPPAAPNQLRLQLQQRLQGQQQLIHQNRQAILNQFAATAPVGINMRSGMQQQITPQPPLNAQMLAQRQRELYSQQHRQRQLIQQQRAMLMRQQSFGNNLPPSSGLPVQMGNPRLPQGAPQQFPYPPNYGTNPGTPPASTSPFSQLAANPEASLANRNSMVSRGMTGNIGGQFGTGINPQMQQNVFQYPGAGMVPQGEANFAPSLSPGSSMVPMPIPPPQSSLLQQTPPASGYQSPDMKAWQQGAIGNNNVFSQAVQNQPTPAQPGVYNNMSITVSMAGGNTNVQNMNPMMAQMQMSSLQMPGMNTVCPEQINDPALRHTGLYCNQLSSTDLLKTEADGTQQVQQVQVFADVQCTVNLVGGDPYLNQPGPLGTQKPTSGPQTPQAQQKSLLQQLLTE

[10] = molecular target: Peroxisome proliferator-activated receptor gamma/Nuclear receptor coactivator 3 (Homo sapiens, UniProt P37231); assay type: functional;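 note: agonist potency for raising coactivator recruitment to the receptor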
Peroxisome proliferator-activated receptor gamma/Nuclear receptor coactivator 3, sequence (P37231 whole entry): as the sequence (P37231 whole entry) above
Peroxisome proliferator-activated receptor gamma/Nuclear receptor coactivator 3, sequence (Q9Y6Q9 whole entry, further chain): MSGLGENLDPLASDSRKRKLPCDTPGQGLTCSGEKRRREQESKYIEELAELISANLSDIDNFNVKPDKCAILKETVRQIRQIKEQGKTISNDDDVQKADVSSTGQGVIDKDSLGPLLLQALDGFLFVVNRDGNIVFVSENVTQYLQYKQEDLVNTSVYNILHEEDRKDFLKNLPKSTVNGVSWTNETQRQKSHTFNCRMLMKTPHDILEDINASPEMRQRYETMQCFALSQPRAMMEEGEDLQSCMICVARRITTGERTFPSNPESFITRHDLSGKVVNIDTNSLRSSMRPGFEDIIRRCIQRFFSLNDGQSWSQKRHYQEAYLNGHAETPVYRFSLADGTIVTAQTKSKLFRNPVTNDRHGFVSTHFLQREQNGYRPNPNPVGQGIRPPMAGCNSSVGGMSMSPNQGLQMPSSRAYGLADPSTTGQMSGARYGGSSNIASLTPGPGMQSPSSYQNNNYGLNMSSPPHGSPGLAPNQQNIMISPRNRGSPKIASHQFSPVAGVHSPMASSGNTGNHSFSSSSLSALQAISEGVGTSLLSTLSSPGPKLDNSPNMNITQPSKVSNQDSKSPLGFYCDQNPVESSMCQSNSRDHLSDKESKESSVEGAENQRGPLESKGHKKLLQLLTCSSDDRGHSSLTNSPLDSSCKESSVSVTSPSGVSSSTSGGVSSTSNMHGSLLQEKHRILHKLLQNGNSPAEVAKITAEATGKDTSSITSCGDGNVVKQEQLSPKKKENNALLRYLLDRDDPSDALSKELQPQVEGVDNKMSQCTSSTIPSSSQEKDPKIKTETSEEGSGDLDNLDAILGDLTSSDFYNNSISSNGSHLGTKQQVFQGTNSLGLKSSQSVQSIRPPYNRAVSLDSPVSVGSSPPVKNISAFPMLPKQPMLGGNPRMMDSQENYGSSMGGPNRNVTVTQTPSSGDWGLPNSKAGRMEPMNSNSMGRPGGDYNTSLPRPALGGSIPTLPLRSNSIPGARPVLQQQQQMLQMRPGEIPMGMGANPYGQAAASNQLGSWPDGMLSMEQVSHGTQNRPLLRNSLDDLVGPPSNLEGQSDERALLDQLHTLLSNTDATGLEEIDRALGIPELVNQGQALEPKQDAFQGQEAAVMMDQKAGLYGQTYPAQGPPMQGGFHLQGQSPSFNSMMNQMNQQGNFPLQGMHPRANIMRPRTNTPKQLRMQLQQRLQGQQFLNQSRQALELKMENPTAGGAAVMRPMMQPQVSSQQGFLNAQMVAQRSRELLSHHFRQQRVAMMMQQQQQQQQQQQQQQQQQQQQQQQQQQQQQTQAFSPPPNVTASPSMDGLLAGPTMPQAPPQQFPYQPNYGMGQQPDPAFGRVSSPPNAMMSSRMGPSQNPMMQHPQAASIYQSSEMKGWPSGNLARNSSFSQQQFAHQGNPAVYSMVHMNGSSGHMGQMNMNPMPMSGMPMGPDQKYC

[11] = viability of PTEN-deleted HCT116 cells – cell-based, HCT116 PTEN knockout, dose response (AID 1047); assay type: functional;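 note: HCT116 colon tumor cells with PTEN knocked out; cells exposed to compound for 60 hours before readout; potency for loss of cell viability measured by luminescence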
[12] = viability of HCT116 lacking mutant beta-catenin – cell-based, human colon tumor, dose response (AID 1045); assay type: functional;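 note: HCT116 colon tumor cells with beta catenin knocked out; cells exposed to compound for 60 hours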
[13] = THP-1 cell cytotoxicity, dose response, cytotoxicity control for non-replicating M. tuberculosis project (AID 489025); assay type: functional
[14] = Vero E6 cell cytotoxicity, dose response, cytotoxicity control for non-replicating M. tuberculosis project, secondary assay (AID 492998); assay type: functional, VeroE6; settings: Vero C1008
[15] = cells; assay type: functional
[16] = test system: HEK293; test: inhibition of NOD1-driven NF-kB reporter – cell-based, luminescence, uHTS, primary screen (AID 1578); assay type: functional; settings: Homo sapiens
[17] = test system: HEK293; test: cells; assay type: functional, cell-based; settings: Homo sapiens
[18] = test system: HEK293; test: cells; assay type: functional, cell-based; settings: Homo sapiens; remark: listed apart in the source
[19] = test system: HEK293; test: NOD2 signaling inhibitors in MDP-stimulated cells, cell-based, uHTS, luminescence (AID 2001); assay type: functional; settings: Homo sapiens
[20] = microbe, parasite or virus in culture; assay type: functional; settings: Mycobacterium tuberculosis
[21] = molecular target: T2, Bcl-2-related protein A1 (Mus musculus, UniProt Q07440); assay type: functional;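 note: confirmatory dose–response counterscreen on Bfl-1, used to check hits from a UBC13 polyubiquitin inhibitor campaign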
T2 sequence (Q07440 whole entry): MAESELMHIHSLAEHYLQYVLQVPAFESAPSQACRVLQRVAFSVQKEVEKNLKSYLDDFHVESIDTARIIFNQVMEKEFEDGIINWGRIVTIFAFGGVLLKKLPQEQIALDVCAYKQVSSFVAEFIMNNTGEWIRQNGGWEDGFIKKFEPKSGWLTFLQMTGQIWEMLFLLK

[22] = molecular target: T3, Ubiquitin-conjugating enzyme E2 N (Homo sapiens, UniProt P61088); assay type: functional
T3 sequence (P61088 whole entry): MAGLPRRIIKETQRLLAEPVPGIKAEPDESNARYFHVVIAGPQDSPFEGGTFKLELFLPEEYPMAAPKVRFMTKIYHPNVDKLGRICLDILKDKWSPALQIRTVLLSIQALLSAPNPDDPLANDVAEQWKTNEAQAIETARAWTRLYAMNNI

[23] = molecular target: T3, Ubiquitin-conjugating enzyme E2 N; assay type: functional; remark: listed apart in the source
[24] = molecular target: Cytochrome P450 2C9 (Homo sapiens, UniProt P11712)
Cytochrome P450 2C9, sequence (P11712 whole entry): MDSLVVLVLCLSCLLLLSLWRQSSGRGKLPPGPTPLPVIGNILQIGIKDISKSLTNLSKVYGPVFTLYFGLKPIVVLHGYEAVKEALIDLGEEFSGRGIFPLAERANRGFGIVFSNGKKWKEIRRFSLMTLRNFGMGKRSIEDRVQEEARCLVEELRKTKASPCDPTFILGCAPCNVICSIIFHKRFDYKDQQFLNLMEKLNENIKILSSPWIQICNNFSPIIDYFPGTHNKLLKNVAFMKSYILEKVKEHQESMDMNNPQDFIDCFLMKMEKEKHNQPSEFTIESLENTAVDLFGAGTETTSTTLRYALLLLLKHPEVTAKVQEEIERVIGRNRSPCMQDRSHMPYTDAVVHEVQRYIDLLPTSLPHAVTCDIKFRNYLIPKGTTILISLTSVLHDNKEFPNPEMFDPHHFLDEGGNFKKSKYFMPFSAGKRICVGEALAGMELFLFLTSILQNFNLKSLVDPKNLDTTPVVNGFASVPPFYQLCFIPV

DNA dC->dU-editing enzyme APOBEC-3A, sequence (P31941 whole entry): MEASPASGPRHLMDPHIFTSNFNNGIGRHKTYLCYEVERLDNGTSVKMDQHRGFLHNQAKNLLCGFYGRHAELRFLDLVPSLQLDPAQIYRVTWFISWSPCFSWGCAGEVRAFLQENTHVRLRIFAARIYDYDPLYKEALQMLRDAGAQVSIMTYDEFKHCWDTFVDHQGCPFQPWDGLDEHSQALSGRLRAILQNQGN

## COc1ccc(/C=N/n2c(S)nnc2-c2[nH]nc3c2CCC3)cc1
[1]
  IC50: > 100 µM (inactive)
[2]
  IC50: 3.61 µM (active)

## Cc1ccccc1OCC(=O)Nc1cc(S(=O)(=O)N2CCCCC2)ccc1N1CCN(C)CC1
[3]
  EC50: 0.634 µM (active)
[4]
  EC50: 5.43 µM (active)
[5]
  EC50: > 60 µM (not active)
[6]
  EC50: > 29.9 µM (not active)

## Cc1cc(/C=C2\C(=O)NN(c3ccccc3)C2=O)c(C)n1-c1ccccc1O
[7]
  IC50: 40.7 µM (active)

## Cn1c(=O)c(Oc2cc(Cl)cc(Cl)c2)nc2ccccc21
[8]
  EC50: 21.1 µM (not active)
[9]
  EC50: 24.5 µM (not active)
[10]
  EC50: 28.8 µM (not active)

## COC(=O)c1cn(NC(=O)c2cnccn2)c(=O)c2ccccc12
[11]
  EC50: 9.08 µM (active)
[12]
  EC50: 8.3 µM (active)
[13]
  CC50: 24.2 µM (active)
[14]
  CC50: 16.2 µM (active)
[15]
  IC50: 9.07 µM (active)

## Cc1ccc(Sc2ccc(/C=C3/C(=O)NN(c4ccccc4)C3=O)o2)cc1
[16]
  EC50: > 20 µM (inactive)
[17]
  IC50: 7.56 µM (active)
[18]
  IC50: > 20 µM (inactive)
[19]
  IC50: 18.2 µM (inactive)
[20]
  CC50: > 40 µM (active)
[15]
  IC50: 18.7 µM (active)

## O=C(NCCCN1CCCC1)c1ccc(Cn2c(=S)[nH]c3ccc(Br)cc3c2=O)cc1
[21]
  IC50: > 20 µM (inactive)
[22]
  IC50: 16.7 µM (active)
[23]
  IC50: > 20 µM (inactive)

## Oc1nc2ccccc2c2oc(CCl)nc12
[20]
  CC50: 12.9 µM (active)
[13]
  CC50: 20.1 µM (active)
[14]
  CC50: 7.46 µM (active)
[15]
  IC50: 3.25 µM (active)

## COc1ccc(/C=C(\C#N)C(=O)OCC(=O)NCc2ccccc2Cl)cc1
[7]
  IC50: 42.3 µM (active)

## Sc1nnc(-c2ccncc2)n1/N=C/c1ccccc1Cl
[1]
  IC50: > 100 µM (inactive)
[2]
  IC50: 3.46 µM (active)

## Cc1cc(C(=O)N/N=C/c2ccc(-c3ccc(C)c(Cl)c3)o2)[nH]n1
[7]
  IC50: 45.5 µM (active)

## Cc1ccc(-c2csc(NC(=O)c3cc([N+](=O)[O-])ccc3N3CCOCC3)n2)cc1
[8]
  EC50: > 79.4 µM (not active)
[9]
  EC50: > 79.4 µM (not active)
[10]
  EC50: > 79.4 µM (not active)

## CN(C)S(=O)(=O)c1cc([N+](=O)[O-])ccc1N1CCCCCC1
[4]
  EC50: 10.1 µM (not active)
[6]
  EC50: > 29.9 µM (not active)
[24]
  AC50: 11.2 µM (inconclusive)

## COc1cc(-c2n[nH]c(=S)n2-c2ccc(C)cc2)cc(OC)c1OC
[1]
  IC50: > 100 µM (inactive)
[2]
  IC50: 3.38 µM (active)

## Cc1ccc(NC(=O)CC(=O)c2ccc([N+](=O)[O-])cc2)cc1S(=O)(=O)Nc1cccc(Cl)c1
[16]
  EC50: 9.53 µM (active)
[17]
  IC50: 7.05 µM (active)
[18]
  IC50: > 20 µM (inactive)
[19]
  IC50: 9.19 µM (active)

## O=c1[nH]c(SCc2n[nH]c(=S)n2-c2ccccc2)nc2ccccc12
[1]
  IC50: > 100 µM (inactive)
[2]
  IC50: 3.8 µM (active)

## Cc1cc(C)c2[nH]c(O)c(N=NC(S)=NCC3CCCO3)c2c1 (centres undefined)
[21]
  IC50: > 20 µM (inactive)
[22]
  IC50: 10.2 µM (active)
[23]
  IC50: 0.509 µM (active)

## CC(C)n1c(SCC(=O)NCc2ccco2)nc2c1c(=O)n(C)c(=O)n2C
[8]
  EC50: > 79.4 µM (not active)
[9]
  EC50: > 79.4 µM (not active)
[10]
  EC50: > 79.4 µM (not active)

## CCc1nnc(NC(=O)COc2ccc(N(C)S(=O)(=O)c3ccc(C)cc3)cc2)s1
[4]
  EC50: 3.27 µM (active)
[6]
  EC50: > 29.9 µM (not active)
